This note sets out measurements from US8680076B2, “Methods of treatment, improvement and prevention using haloaryl substituted aminopurines” (Signal Pharmaceuticals, LLC, priority 2010, dated 2014).

In assay [1] the test system is phospho-c-Jun (JNK) in EpiDermFT reconstituted human skin equivalent. Description: UVB-stimulated JNK activation in EpiDermFT skin model (Western blot). In kind it is cell-based. Here is the method: Two in vitro systems, nHEK and the EpiDermFT™ skin model, were used in this study. The nHEK cells and EpiDermFT™ samples were pretreated with JNKi-1 at concentrations of 0.1, 3, and 10 μM prior to 60 mJ/cm^2 and 135 mJ/cm^2 UVB irradiation, respectively. After UV stimulation, the activities of JNK were measured as levels of phospho-c-Jun via immunoblotting of cell lysates using an anti-phospho-c-Jun S63 antibody. Phospho-Stat3 was also evaluated as a marker of JNK activation.
Samples were cultured in 2 mL of serum-free maintenance media (EFT-200-MM) for 72 hr. After 72 hr, the media was replaced with 2 mL of fresh media containing 0, 0.1, 3, and 10 μM of JNKi-1, respectively). Samples were allowed to soak at 37° C., 5% CO2 for 6 hr, then removed from the media and placed into 2 mL of PBS and irradiated with 135 mJ/cm^2 of UVB. Controls were sham irradiated. Samples were placed back into 2 mL of media containing JNKi-1. Samples were harvested at 30 minutes and 3 hr post UV treatment. Each sample was cut in half; one half was snap frozen in liquid nitrogen, homogenized in lysis buffer, and lysates stored at −80° C. The other half was placed in 10% neutral buffer formalin for 3 hr and transferred to 100% ethanol for processing
cells were pre-incubated with either dimethyl sulfoxide (DMSO) (FIG. 31, lanes 1, 2, and 12 to 15) or JNKi-1 at the indicated concentration (lanes 3 to 11) for 1 hr and then irradiated without (Control, lanes 1 and 2) or with UVB at 60 mJ/cm^2 (lanes 3 to 15). Cells were lysed 30 minutes after UV irradiation and cell lysates were subjected to sodium dodecyl sulfate polyacrylamide gel electrophoresis (SDS-PAGE) before Western blotting with anti-phospho-c-Jun antibody. […]
Western analysis: For Western blot analysis, 20 to 25 μg of total protein were applied to SDS-PAGE gels followed by electrophoresis and blotting. […] The intensity of each band was quantified by the Odyssey 2.1 software and exported into Excel for further analysis. […]
(In western blotting, separated proteins are transferred to a membrane and probed.)

Assay [2] deals with c-Jun (JNK) in human skin. In words: UVB-irradiated human skin, c-Jun IHC (3-way crossover study). In kind it is in vivo. The settings on record: for median subjective score of c-Jun: scale 0-4. Here is the method:
The inhibitory effect of JNKi-1 on JNK was evaluated by assessing the status of the downstream substrate c-Jun (“cJun”) and phospho-c-Jun (or “p-cJun”) following UV irradiation of human skin.
The study was designed as randomized, double blind, placebo controlled, multiple dose, 3-way crossover study. Fifteen subjects were randomized to one of 3 sequences (5 subjects per sequence) as outlined below (see Table 3). There was a 7-day to 10 day washout period (no more than 14 days) from the last dose of the previous period to the first dose of the next period.
Fifteen patients enrolled, 14 completed the study and were included in the PD and PK analyses; all were healthy Caucasian male volunteers with Fitzpatrick skin type 2. The mean age was […] (20-49 years) and weight was 81 kg (64-96 kg). On the evening of Day-1, patients started fasting (at least an 8-hour fast prior to dosing on Day 1). Subjects received treatment A, B or C in Periods 1 to 3 under fasting conditions in an order based on the randomization scheme. Subjects went through the same procedures (except for the change in treatment) for all 3 periods, with the required washout in between periods. No strenuous activities were permitted during confinement. All efforts were made to keep activities, environment, food, procedures, and schedule between treatment periods identical.
On Day 6, subjects received a 2×MED UV dose to two sites on the buttock. One punch biopsy (approximately 3 mm in diameter by 0.8 mm in depth) was taken from one of the two UV irradiated sites. The punch biopsies were taken at 8 (±5 minutes) hours post UV exposure on Day 6.
Skin specimens from the biopsies was analyzed for phospho c-Jun and total c-Jun using IHC assay. Phospho c-Jun was quantified using a 0-4 subjective grading scales and/or objective scoring using an automated system, i.e. a laser scanning cytometer (LSC), evaluating the integrated intensity of staining measured optically.
Biopsies were analyzed following the procedures described below to evaluate phospho c-Jun and c-Jun expression using IHC assay. The method employed to assess JNK activation was a two antibody IHC assay that employed a primary antibody, directed against the target, and a secondary antibody conjugated with a chromogenic enzyme. Thus, the method was a two-step immunohistochemical assay designed to interrogate the target, c-Jun and phospho c-Jun. Any changes in JNK activity were measurable in the amounts of these target molecules, c-Jun and phospho c-Jun. The secondary antibody-reporter conjugate deposited a red color when incubated with the substrate reaction mix, thus marking the location of the primary antibody target complex. The red color was then recorded with standard bright-field illumination using a Nikon microscope. The microscope images were then photographed and electronic images were scored (blinded) by three independent and trained scorers using the following guidelines. A score of 0 indicated staining of 0-19% of the epithelial keratinocyte nuclei; a score of 1 indicated staining of 20-39% of the epithelial keratinocyte nuclei; a score of 2 indicated staining of 40-59% of the epithelial keratinocyte nuclei; a score of 3 indicated staining of 60-79% of the epithelial keratinocyte nuclei; and a score of 4 indicated staining of 80-100% of the epithelial keratinocyte nuclei. FIG. 21 depicts representative immunostaining for the respective scores.
For each tissue, a count of nuclei in the epithelial layer was obtained. All phospho c-Jun or c-Jun positive nuclei were counted as well as their integral (intensity). A score was calculated for each: score=(p-cJun or cJun positive nuclei×average Intensity)/Total nuclei.

Entries after “also recorded” stand apart in the source; their conditions may differ.

For `O[C@H]1CC[C@H](Nc2ncc3nc(Nc4c(F)cc(F)cc4F)n([C@H]4CCOC4)c3n2)CC1` [JNKi-1, 4-((9-((3S)-tetrahydro-3-furanyl)-8-((2,4,6-trifluorophenyl)amino)-9H-purin-2-yl)amino)-trans-cyclohexanol], in assay [1] (EpiDermFT, 0.1, 3, 10 μM), the “UVB-induced JNK activation (phospho-c-Jun level), in words” value is recorded as “strongly Inhibits; also recorded: significantly blocks”. The “inhibition of phospho-Stat3” value in assay [1] (EpiDermFT, 30 minutes post UV, data not shown) is “minimal”. In assay [1] (Homo sapiens, light or radiation study, 0.5 h, EpiDermFT, UVB 135 mJ/cm^2, lysed 30 minutes after UV, read-out: IC50 for p-cJun), the IC50 fell in the range of 0.1 to 3 µM. Moreover, the “median subjective score of c-Jun” value amounted to 3 in assay [2] (75 mg QD x 6 days) and 2 in assay [2] (200 mg QD x 6 days). Also, the “odds ratio, c-Jun scores 0, 1, 2 vs. scores 3, 4 (logistic regression)” value was determined as 3.69 in assay [2] (75 mg vs. placebo) and 9.30 in assay [2] (200 mg vs. placebo). Also, the “frequency of high c-Jun subjective scores” value in assay [2] (200 mg vs placebo) is listed as “fewer subjects had high cJun scores; also recorded: fewer patients had high scores”. In addition, the “c-Jun immunostaining, percentage of positive epithelial nuclei, Patient 15” value in assay [2] (versus placebo) is on record as “significantly decreased”.

In general, IC50 refers to the concentration at which inhibition is half-maximal.
